These results are taken from PubChem BioAssay AID1259408 (Genetic Toxicology Data Bank (GENE-TOX), 2018).

SMILES strings stand for the structures. Active and inactive are the calls of the source. How the calls were made is not given here.

The test system of the data set is GENE-TOX genotoxicity assays, various organisms and cells. In words: GENE-TOX mutagenicity studies.
Where [1] appears, read: Species/Cell Type: Saccharomyces cerevisiae, Assay Type: Mitotic recombination or gene conversion, Assay Code: YEH-, Evaluation Type: Evaluation A (Pre-1980).
Setting [2] is: Species/Cell Type: Salmonella typhimurium (one or more of the five standard strains: TA98, TA100, TA1535, TA1537, and TA1538), Assay Type: Histidine reverse gene mutation, Ames assay, Assay Code: SAL-, Evaluation Type: Evaluation A (Pre-1980).
The mark [3] stands for this setting: Species/Cell Type: Salmonella typhimurium, Assay Type: Forward and reverse gene mutation, host-mediated assay, Assay Code: HMA-, Evaluation Type: Evaluation A (Pre-1980).
[4] abbreviates: Species/Cell Type: Nonhuman, Assay Type: Sister-chromatid exchange (SCE) in vivo, Assay Code: SC3+D, Dose Response: With dose response, Evaluation Type: Evaluation B (Post-1980).
[5] abbreviates: Species/Cell Type: Salmonella typhimurium (one or more of the five standard strains: TA98, TA100, TA1535, TA1537, and TA1538), Assay Type: Histidine reverse gene mutation, Ames assay, Assay Code: SAL+, Evaluation Type: Evaluation A (Pre-1980).
Setting [6] is: Species/Cell Type: Allium cepa, Assay Type: Chromosome aberrations, Assay Code: ALC+D, Dose Response: With dose response, Evaluation Type: Evaluation A (Pre-1980).
Where [7] appears, read: Species/Cell Type: Drosophila melanogaster, Assay Type: Sex-linked recessive lethal gene mutation, Assay Code: SRLT, Evaluation Type: Evaluation A (Pre-1980).
Setting [8] is: Species/Cell Type: Syrian hamster embryo (SA7/SHE) cells, Assay Type: Cell transformation, viral enhanced, Assay Code: CT7+, Evaluation Type: Evaluation A (Pre-1980).
Setting [9] is: Species/Cell Type: Bacillus subtilis (H17 vs M45), Assay Type: Rec-assay, spot test, DNA effects (bacterial DNA repair), Assay Code: REWT, Evaluation Type: Evaluation A (Pre-1980).
[10] abbreviates: Species/Cell Type: Drosophila melanogaster, Assay Type: Sex-linked recessive lethal gene mutation, Assay Code: SRL+, Evaluation Type: Evaluation A (Pre-1980).

For the compound `CCSCC[C@H](N)C(=O)O`, the mutagenic call reads like this: (Species/Cell Type: Escherichia coli polA (W3110 vs P3478), Assay Type: Rec-assay, DNA effects (bacterial DNA repair), Assay Code: RE2T, Evaluation Type: Evaluation A (Pre-1980)) “no conclusion”; (Species/Cell Type: Escherichia coli polA (W3119 vs P3478), Assay Type: Rec-assay, DNA effects (bacterial DNA repair), Assay Code: RE1T, Evaluation Type: Evaluation A (Pre-1980)) “no conclusion”; (Species/Cell Type: Human diploid fibroblasts, Assay Type: Unscheduled DNA synthesis (UDS) in vitro, DNA effects, Assay Code: UDH-, Evaluation Type: Evaluation A (Pre-1980)) “inactive; negative”; (Species/Cell Type: Human lymphocytes, Assay Type: Sister-chromatid exchange (SCE) in vitro, Assay Code: SCL+, Evaluation Type: Evaluation B (Post-1980)) “active; positive”; (Species/Cell Type: Human, Assay Type: Sister-chromatid exchange (SCE) in vitro, Assay Code: SC1+, Evaluation Type: Evaluation B (Post-1980)) “active; positive”; (Species/Cell Type: Mammalian polychromatic erythrocytes, Assay Type: Micronucleus test, chromosome aberrations, Assay Code: MNT+, Evaluation Type: Evaluation A (Pre-1980)) “active; positive”. Besides, the mutagenic call runs as follows: (Species/Cell Type: Mouse, Sex: Male, Assay Type: Sperm morphology, Assay Code: SPI+, Evaluation Type: Evaluation A (Pre-1980)) “active; positive”; under setting [1], “inactive; negative”; under setting [2], “inactive; negative”; under setting [3], “inactive; negative”; (Species/Cell Type: Syrian hamster embryo (SHE) cells, Assay Type: Cell transformation, clonal assay, Assay Code: CTC+, Evaluation Type: Evaluation A (Pre-1980)) “active; positive”.
`Cc1nc(N)cc2[nH]c3ccccc3c12`: the mutagenic call is, setting by setting: (Species/Cell Type: Chinese hamster ovary (CHO) cells, Assay Type: Forward gene mutation at the HPRT locus, Assay Code: CHO+*, Activation: With metabolic activation, Evaluation Type: Evaluation B (Post-1980)) “active; positive”; (Species/Cell Type: Human lymphocytes, Assay Type: Sister-chromatid exchange (SCE) in vitro, Assay Code: SCL+D, Dose Response: With dose response, Evaluation Type: Evaluation B (Post-1980)) “active; positive”; (Species/Cell Type: Human, Assay Type: Sister-chromatid exchange (SCE) in vitro, Assay Code: SC1+D, Dose Response: With dose response, Evaluation Type: Evaluation B (Post-1980)) “active; positive”; (Species/Cell Type: Nonhuman, Assay Type: Sister-chromatid exchange (SCE) in vitro, Assay Code: SC2+D*, Activation: With metabolic activation, Dose Response: With dose response, Evaluation Type: Evaluation B (Post-1980)) “active; positive”; under setting [4], “active; positive”; (Species/Cell Type: Salmonella typhimurium (one or more of the five standard strains: TA98, TA100, TA1535, TA1537, and TA1538), Assay Type: Histidine reverse gene mutation, Ames assay, Assay Code: SAL+*, Activation: With metabolic activation, Evaluation Type: Evaluation A (Pre-1980)) “active; positive”. In addition, the call (Species/Cell Type: Nonhuman, Assay Type: In vivo carcinogenicity studies, Assay Code: CCG+, Evaluation Type: Evaluation A (Pre-1980)) is “active; positive”.
Turning to `C[C@H](CCC(=O)O)[C@H]1CC[C@H]2[C@@H]3CC[C@@H]4C[C@H](OS(=O)(=O)O)CC[C@]4(C)[C@H]3CC[C@]12C`, the mutagenic call (Species/Cell Type: Syrian hamster embryo (SHE) cells, Assay Type: Cell transformation, clonal assay, Assay Code: CTC-, Evaluation Type: Evaluation A (Pre-1980)) is “inactive; negative”.
On to `C=C=O`, for which the mutagenic call reads like this: under setting [5], “active; positive”; (Species/Cell Type: Tradescantia species, Assay Type: Chromosome aberrations, Assay Code: TRC+, Evaluation Type: Evaluation A (Pre-1980)) “active; positive”.
As for `CCSc1nc2c(c(=O)n(C)c(=O)n2C)n1C`, the mutagenic call under setting [6] was “active; positive”.
Turning to `Oc1c(Cl)c(Cl)c(Cl)c(Cl)c1Cl`, the mutagenic call runs as follows: (Species/Cell Type: Bacillus subtilis (H17 vs M45), Assay Type: Rec-assay, spot test, DNA effects (bacterial DNA repair), Assay Code: REW+, Evaluation Type: Evaluation A (Pre-1980)) “active; positive”; under setting [7], “no conclusion”; (Species/Cell Type: Mouse, Sex: Female, Assay Type: Spot test, gene mutation, Assay Code: MST-, Evaluation Type: Evaluation A (Pre-1980)) “inactive; negative”; (Species/Cell Type: Saccharomyces cerevisiae, Assay Type: Forward gene mutation, Assay Code: YEF+, Evaluation Type: Evaluation A (Pre-1980)) “active; positive”; (Species/Cell Type: Saccharomyces cerevisiae, Assay Type: Mitotic recombination or gene conversion, Assay Code: YEC+, Evaluation Type: Evaluation A (Pre-1980)) “active; positive”; under setting [1], “inactive; negative”. The mutagenic call runs as follows: under setting [2], “inactive; negative”; under setting [3], “inactive; negative”; under setting [8], “active; positive”.
For the compound `C1CCNC1`, the mutagenic call under setting [3] is “inactive; negative”.
For `CC(=O)OC(c1ccccc1)N(C)N=O` (stereo unspecified), the mutagenic call under setting [5] was “active; positive”.
Turning to `C#C[C@]1(OC(C)=O)CC[C@H]2[C@@H]3CCC4=CC(=O)CC[C@@H]4[C@H]3CC[C@@]21C`, the mutagenic call (Species/Cell Type: Rodents, Sex: Male, Assay Type: Dominant lethal test, Assay Code: DLTT, Evaluation Type: Evaluation A (Pre-1980)) is recorded as “no conclusion”.
For `O=C(CCCN1CCC(O)(c2ccc(Cl)cc2)CC1)c1ccc(F)cc1`, the mutagenic call is, setting by setting: under setting [6], “active; positive”; (Species/Cell Type: Human, Assay Type: Sister-chromatid exchange (SCE) in vitro, Assay Code: SC1T, Evaluation Type: Evaluation B (Post-1980)) “no conclusion”.
On to `O=S(=O)(O)c1ccc2c(N=Nc3cccc4ccccc34)c(O)c(S(=O)(=O)O)cc2c1`, for which the mutagenic call under setting [9] is “no conclusion”.
Consider `O=c1ccn([C@H]2C[C@H](O)[C@@H](COP(=O)(O)O)O2)c(=O)[nH]1`, for which the mutagenic call under setting [7] was “no conclusion”.
In the case of `CC1=CC(=C(c2ccc(N)c(S(=O)(=O)O)c2)c2ccc(N)c(S(=O)(=O)O)c2)C=C(S(=O)(=O)O)C1=N`, the mutagenic call under setting [9] is reported as “no conclusion”.
With `c1ccc(Nc2ccccc2)cc1`, the mutagenic call under setting [8] was “active; positive”.
`CC(=O)c1cc(O)c(C(C)C)c2cc(C)c(-c3c(C)cc4c(C(C)C)c(O)c(O)c(C=O)c4c3O)c(O)c12`: the mutagenic call (Species/Cell Type: Mammalian polychromatic erythrocytes, Assay Type: Micronucleus test, chromosome aberrations, Assay Code: MNTT, Evaluation Type: Evaluation B (Post-1980)) is reported as “no conclusion” and the mutagenic call under setting [4] is “active; positive”.
As to `O=c1[nH]cc(Br)c(=O)[nH]1`, the mutagenic call runs as follows: (Species/Cell Type: Hordeum vulgare (barley), Assay Type: Gene mutation, Assay Code: HOM+D, Dose Response: With dose response, Evaluation Type: Evaluation A (Pre-1980)) “active; positive”; under setting [1], “inactive; negative”; (Species/Cell Type: Vicia faba, Assay Type: Chromosome aberrations, Assay Code: VIC+, Evaluation Type: Evaluation A (Pre-1980)) “active; positive”.
Regarding `CCN(CC)Cc1cc(Br)ccc1OCC(=O)N/N=C\c1ccc(OC)cc1`, the mutagenic call (Species/Cell Type: Saccharomyces cerevisiae, Assay Type: Reverse gene mutation, Assay Code: YERT, Evaluation Type: Evaluation A (Pre-1980)) is reported as “no conclusion”.
Consider `CCn1cc(C(=O)O)c(=O)c2ccc(C)nc21`, for which the mutagenic call is, setting by setting: (Species/Cell Type: Bacillus subtilis (H17 vs M45T), Assay Type: Rec-assay, spot test, DNA effects (bacterial DNA repair), Assay Code: REX+, Evaluation Type: Evaluation A (Pre-1980)) “active; positive”; under setting [10], “active; positive”; (Species/Cell Type: Escherichia coli polA (W3119 vs P3478), Assay Type: Rec-assay, DNA effects (bacterial DNA repair), Assay Code: RE1+, Evaluation Type: Evaluation A (Pre-1980)) “active; positive”; (Species/Cell Type: Human lymphocytes, Assay Type: Sister-chromatid exchange (SCE) in vivo, Assay Code: SCY+, Evaluation Type: Evaluation B (Post-1980)) “active; positive”.
As to `CN(C)c1nc(N(C)C)nc(N(C)C)n1`, the mutagenic call under setting [10] was “active; positive”.
The same measure, in the same setting: to `CC(C)C(O)(C(=O)OCC1=CCN2CC[C@H](O)[C@H]12)[C@H](C)O` (stereo partly specified) belongs “active; positive”.
In the case of `O=C1OC2(c3ccc(O)cc3Oc3cc(O)ccc32)c2ccccc21`, under setting [9], the mutagenic call is reported as “no conclusion”.
`Cc1cc2cc3c(C)cc(=O)oc3c(C)c2o1`: the mutagenic call runs as follows: (Species/Cell Type: Human lymphocytes, Assay Type: Sister-chromatid exchange (SCE) in vitro, Assay Code: SCLT, Evaluation Type: Evaluation A (Pre-1980)) “no conclusion”; (Species/Cell Type: Human, Assay Type: Sister-chromatid exchange (SCE) in vitro, Assay Code: SC1T, Evaluation Type: Evaluation A (Pre-1980)) “no conclusion”.
On to `[Cl][Pd][Cl]`, for which the mutagenic call (Species/Cell Type: Bacillus subtilis (H17 vs M45), Assay Type: Rec-assay, spot test, DNA effects (bacterial DNA repair), Assay Code: REW-, Evaluation Type: Evaluation A (Pre-1980)) was “inactive; negative”.
